Laboratory results reported in patent US11596644B2, “Method for treating post-prandial hypoglycemia” (AVOLYNT, priority 2018, dated 2023).

What was measured:
human SGLT2 = molecular target: T1, human SGLT2 (Homo sapiens, UniProt P31639); experiment: Inhibition of radiolabeled α-MG uptake into COS-7 cells transfected with human SGLT2 (Dixon plot); format: cell-based; details: α-MG 0.3 and 1 mM, read-out: inhibition constant for human SGLT2
T1 construct: expressed in transfected cells; host or cells: COS-7
T1 sequence (P31639 1-672): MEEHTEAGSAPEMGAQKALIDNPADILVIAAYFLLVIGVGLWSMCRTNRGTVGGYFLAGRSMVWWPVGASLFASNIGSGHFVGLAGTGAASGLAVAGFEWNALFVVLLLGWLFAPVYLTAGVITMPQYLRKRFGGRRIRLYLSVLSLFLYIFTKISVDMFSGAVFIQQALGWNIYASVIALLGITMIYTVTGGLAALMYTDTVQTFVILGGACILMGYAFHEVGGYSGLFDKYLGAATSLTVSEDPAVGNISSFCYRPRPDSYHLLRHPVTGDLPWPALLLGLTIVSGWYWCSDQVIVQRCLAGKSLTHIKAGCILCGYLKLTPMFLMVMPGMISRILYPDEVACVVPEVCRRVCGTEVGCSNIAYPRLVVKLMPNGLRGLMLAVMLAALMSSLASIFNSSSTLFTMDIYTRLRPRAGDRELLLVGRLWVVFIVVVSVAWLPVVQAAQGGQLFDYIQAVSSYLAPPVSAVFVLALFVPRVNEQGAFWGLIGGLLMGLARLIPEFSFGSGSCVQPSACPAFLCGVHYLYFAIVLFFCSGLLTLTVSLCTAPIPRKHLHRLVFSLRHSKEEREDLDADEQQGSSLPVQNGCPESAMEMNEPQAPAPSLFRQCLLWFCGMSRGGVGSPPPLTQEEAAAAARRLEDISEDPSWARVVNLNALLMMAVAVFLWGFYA
Protocol: Selective inhibition study. Inhibition constants (Ki) of mizagliflozin for rat and human SGLT1 and SGLT2 were determined measuring concentration-dependent effects of test compound on uptake of radiolabeled methyl-α-D-glucopyranoside (α-MG) into COS-7 cells transiently transfected with cloned SGLT1 or SGLT2. Mizagliflozin was assessed at concentrations from 1 to 30 μM and 3 to 100 μM for human and rat SGLT2, respectively. It was assessed at concentrations from 30 nM to 1 μM and 10 to 30 nM for human and rat SGLT1, respectively. α-MG test concentrations were 0.3 and 1 mM. Data were analyzed and Ki determined using Dixon plots of initial transport rates. […] Inhibition constants were also determined for human SGLT1 and SGLT2.

[1] = test system: STZ-induced diabetic rats; experiment: Oral glucose tolerance test in STZ-induced diabetic rats (Example 4); format: in vivo, rat
Protocol: Study in diabetic rats using oral glucose tolerance test. Efficacy of mizagliflozin was tested in a rat model for diabetes using an oral glucose tolerance test (OGTT). Diabetic model rats were prepared by intravenous administration of STZ to induce diabetes. Seven days after STZ administration, rats were fasted for 16 hours and then given an oral loading dose of 2.0 g/kg of glucose. Mizagliflozin, or water as the vehicle control, was then administered as a single oral dose to groups of male rats (n=8/group) at doses of 0.03, 0.1, 0.3, and 1 mg/kg. Another control group was given vehicle and consisted of normal male Sprague Dawley rats that were not administrated STZ. Voglibose was also administered as a single oral dose to male rats (n=8/group) at dose levels of 0.1, 0.3 and 1 mg/kg. Blood samples were collected just prior to loading with mixed carbohydrate and at 0.5, 1, 2, 3, 4, and 6 hours after loading. Plasma glucose concentrations were determined and ΔAUC0-1 h for plasma glucose was calculated.

Ki (human SGLT2): 8.17 µM
SMILES: Cc1cc(OCCCNCC(C)(C)C(N)=O)ccc1Cc1c(O[C@@H]2O[C@H](CO)[C@@H](O)[C@H](O)[C@H]2O)n[nH]c1C(C)C [mizagliflozin, 3-(3-{4-[3-(β-D-glucopyranosyloxy)-5-isopropyl-1H-pyrazol-4-ylmethyl-]-3-methylphenoxy}propylamino)-2,2-dimethylpropionamide]
ED50 ([1]; Rattus norvegicus, read-out: ED50 calculated from mean ΔAUC0-1 h (% of control), glucose 2.0 g/kg, single oral dose): 0.099 mg/kg | ΔAUC0-1 h of plasma glucose versus vehicle control ([1]; glucose 2.0 g/kg): significantly lowered
